Laboratory results published in patent US20060223879A1, “Non-steroidal farnesoid x receptor modulators” (priority 2002, published 2006).

biological target: T1, FXR (Homo sapiens, UniProt Q96RI1); assay: cell-based transcription assay, FXR responsive promoter linked to a luciferase reporter; set-up: RE: scale not given here; settings: FXR activation, cell-based reporter assay; read-out: EC50
T1 construct: using a full length FXR on a natural response element; expressed in transfected cells
T1 sequence (Q96RI1 1-486): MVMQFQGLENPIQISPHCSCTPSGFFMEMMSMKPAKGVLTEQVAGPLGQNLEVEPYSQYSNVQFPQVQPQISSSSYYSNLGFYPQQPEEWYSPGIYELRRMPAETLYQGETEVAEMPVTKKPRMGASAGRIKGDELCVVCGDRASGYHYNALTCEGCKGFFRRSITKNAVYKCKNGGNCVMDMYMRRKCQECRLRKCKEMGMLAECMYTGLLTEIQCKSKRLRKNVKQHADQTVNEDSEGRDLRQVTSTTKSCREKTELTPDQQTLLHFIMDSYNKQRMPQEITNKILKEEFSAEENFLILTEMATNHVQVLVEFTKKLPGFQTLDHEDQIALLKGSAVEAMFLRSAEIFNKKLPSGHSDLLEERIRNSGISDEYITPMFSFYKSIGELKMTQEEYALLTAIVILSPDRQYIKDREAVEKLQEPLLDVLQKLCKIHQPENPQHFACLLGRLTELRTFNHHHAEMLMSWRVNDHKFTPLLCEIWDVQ
Method in brief: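 Cells co-transfected with full-length FXR and a luciferase reporter carrying a natural hormone response element on a minimal promoter.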

SMILES | EC50 [nM]
COC(=O)/C=C/c1cccc(N(Cc2ccc3c(c2OC)OC(C)(C)C2C3C2(Cl)Cl)C(=O)C2CCCCC2)c1 (stereo not shown) [Compound 149] | 188
COC(=O)/C=C/c1cccc(N(Cc2ccc(-c3ccc4c(c3)OCO4)cc2)C(=O)C2CCCCC2)c1 [Compound 244] | 38
COC(=O)/C=C/c1cccc(N(Cc2ccc(-c3ccc(N(C)C)cc3)cc2)C(=O)C2CCCCC2)c1 [Compound 259] | 25

same assay, conditions: Tables 1-15; FXR activation, cell-based reporter assay; read-out: EC50

SMILES | EC50 [nM]
COC(=O)/C=C/c1cccc(N(Cc2ccc(-c3ccc(OC)cc3)cc2)C(=O)NC(C)C)c1 [Compound 231] | 144
COC(=O)/C=C/c1cccc(N(Cc2ccc(-c3cccc(Cl)c3)cc2)C(=O)C2CCCCC2)c1 [Compound 232] | 94
COC(=O)/C=C/c1cccc(N(Cc2ccc(-c3cccc(Cl)c3)cc2)C(=O)NC(C)C)c1 [Compound 234] | 1400
COC(=O)/C=C/c1cccc(N(Cc2ccc(-c3ccc(C)cc3)cc2)C(=O)C2CCCCC2)c1 [Compound 235] | 26
COC(=O)/C=C/c1cccc(N(Cc2ccc(-c3ccc(C)cc3)cc2)C(=O)C(C)C)c1 [Compound 236] | 118
COC(=O)/C=C/c1cccc(N(Cc2ccc(-c3ccc(C)cc3)cc2)C(=O)NC(C)C)c1 [Compound 237] | 449
COC(=O)/C=C/c1cccc(N(Cc2ccc(-c3cccc(C)c3)cc2)C(=O)C2CCCCC2)c1 [Compound 238] | 109
COC(=O)/C=C/c1cccc(N(Cc2ccc(-c3cccc(C)c3)cc2)C(=O)C(C)C)c1 [Compound 239] | 163
COC(=O)/C=C/c1cccc(N(Cc2ccc(-c3cccc(C)c3)cc2)C(=O)NC(C)C)c1 [Compound 240] | 1330
COC(=O)/C=C/c1cccc(N(Cc2ccc(-c3cc(Cl)ccc3OC)cc2)C(=O)C2CCCCC2)c1 [Compound 241] | 233
COC(=O)/C=C/c1cccc(N(Cc2ccc(-c3cc(Cl)ccc3OC)cc2)C(=O)C(C)C)c1 [Compound 242] | 226
COC(=O)/C=C/c1cccc(N(Cc2ccc(-c3cc(Cl)ccc3OC)cc2)C(=O)NC(C)C)c1 [Compound 243] | 3080
COC(=O)/C=C/c1cccc(N(Cc2ccc(-c3ccc4c(c3)OCO4)cc2)C(=O)C(C)C)c1 [Compound 245] | 19
COC(=O)/C=C/c1cccc(N(Cc2ccc(-c3ccc4c(c3)OCO4)cc2)C(=O)NC(C)C)c1 [Compound 246] | 96
COC(=O)/C=C/c1cccc(N(Cc2ccc(-c3ccc(F)c(Cl)c3)cc2)C(=O)C2CCCCC2)c1 [Compound 247] | 66

same assay, conditions: Tables 1-15; RE not defined in the source

SMILES | RE
COC(=O)/C=C/c1cccc(N(Cc2ccc3c(c2OC)OC(C)(C)C2C3C2(Cl)Cl)C(=O)C2CCCCC2)c1 (stereo not shown) [Compound 149] | 0.50
COC(=O)/C=C/c1cccc(N(Cc2ccc(-c3ccc(OC)cc3)cc2)C(=O)NC(C)C)c1 [Compound 231] | 1.16
COC(=O)/C=C/c1cccc(N(Cc2ccc(-c3cccc(Cl)c3)cc2)C(=O)C2CCCCC2)c1 [Compound 232] | 1.56
COC(=O)/C=C/c1cccc(N(Cc2ccc(-c3cccc(Cl)c3)cc2)C(=O)NC(C)C)c1 [Compound 234] | 0.49
COC(=O)/C=C/c1cccc(N(Cc2ccc(-c3ccc(C)cc3)cc2)C(=O)C2CCCCC2)c1 [Compound 235] | 1.38
COC(=O)/C=C/c1cccc(N(Cc2ccc(-c3ccc(C)cc3)cc2)C(=O)C(C)C)c1 [Compound 236] | 1.48
COC(=O)/C=C/c1cccc(N(Cc2ccc(-c3ccc(C)cc3)cc2)C(=O)NC(C)C)c1 [Compound 237] | 0.80
COC(=O)/C=C/c1cccc(N(Cc2ccc(-c3cccc(C)c3)cc2)C(=O)C2CCCCC2)c1 [Compound 238] | 1.43
COC(=O)/C=C/c1cccc(N(Cc2ccc(-c3cccc(C)c3)cc2)C(=O)C(C)C)c1 [Compound 239] | 1.09
COC(=O)/C=C/c1cccc(N(Cc2ccc(-c3cccc(C)c3)cc2)C(=O)NC(C)C)c1 [Compound 240] | 0.53
COC(=O)/C=C/c1cccc(N(Cc2ccc(-c3cc(Cl)ccc3OC)cc2)C(=O)C2CCCCC2)c1 [Compound 241] | 1.16
COC(=O)/C=C/c1cccc(N(Cc2ccc(-c3cc(Cl)ccc3OC)cc2)C(=O)C(C)C)c1 [Compound 242] | 0.79
COC(=O)/C=C/c1cccc(N(Cc2ccc(-c3cc(Cl)ccc3OC)cc2)C(=O)NC(C)C)c1 [Compound 243] | 0.17
COC(=O)/C=C/c1cccc(N(Cc2ccc(-c3ccc4c(c3)OCO4)cc2)C(=O)C2CCCCC2)c1 [Compound 244] | 1.90
COC(=O)/C=C/c1cccc(N(Cc2ccc(-c3ccc4c(c3)OCO4)cc2)C(=O)C(C)C)c1 [Compound 245] | 1.25
COC(=O)/C=C/c1cccc(N(Cc2ccc(-c3ccc4c(c3)OCO4)cc2)C(=O)NC(C)C)c1 [Compound 246] | 1.51
COC(=O)/C=C/c1cccc(N(Cc2ccc(-c3ccc(F)c(Cl)c3)cc2)C(=O)C2CCCCC2)c1 [Compound 247] | 1.67
COC(=O)/C=C/c1cccc(N(Cc2ccc(-c3ccc(N(C)C)cc3)cc2)C(=O)C2CCCCC2)c1 [Compound 259] | 1.72

same assay, conditions: cell-based reporter assay

SMILES | FXR activation (in words)
COC(=O)/C=C/c1cccc(N(Cc2ccc(-c3cccc(Cl)c3)cc2)C(=O)C2CCCCC2)c1 [Compound 232] | excellent activity
COC(=O)/C=C/c1cccc(N(Cc2ccc(-c3ccc(C)cc3)cc2)C(=O)C2CCCCC2)c1 [Compound 235] | excellent activity
COC(=O)/C=C/c1cccc(N(Cc2ccc(-c3ccc(C)cc3)cc2)C(=O)C(C)C)c1 [Compound 236] | excellent activity
COC(=O)/C=C/c1cccc(N(Cc2ccc(-c3cccc(C)c3)cc2)C(=O)C2CCCCC2)c1 [Compound 238] | excellent activity
COC(=O)/C=C/c1cccc(N(Cc2ccc(-c3ccc4c(c3)OCO4)cc2)C(=O)C2CCCCC2)c1 [Compound 244] | excellent activity
COC(=O)/C=C/c1cccc(N(Cc2ccc(-c3ccc4c(c3)OCO4)cc2)C(=O)C(C)C)c1 [Compound 245] | excellent activity
COC(=O)/C=C/c1cccc(N(Cc2ccc(-c3ccc4c(c3)OCO4)cc2)C(=O)NC(C)C)c1 [Compound 246] | excellent activity
COC(=O)/C=C/c1cccc(N(Cc2ccc(-c3ccc(F)c(Cl)c3)cc2)C(=O)C2CCCCC2)c1 [Compound 247] | excellent activity
COC(=O)/C=C/c1cccc(N(Cc2ccc(-c3ccc(N(C)C)cc3)cc2)C(=O)C2CCCCC2)c1 [Compound 259] | excellent activity

biological target: T2, SXR (Homo sapiens, UniProt O75469); assay: screen against a panel of nuclear receptors: SXR activation; assay type: cell-based; settings: nuclear receptor panel
T2 sequence (O75469 1-434): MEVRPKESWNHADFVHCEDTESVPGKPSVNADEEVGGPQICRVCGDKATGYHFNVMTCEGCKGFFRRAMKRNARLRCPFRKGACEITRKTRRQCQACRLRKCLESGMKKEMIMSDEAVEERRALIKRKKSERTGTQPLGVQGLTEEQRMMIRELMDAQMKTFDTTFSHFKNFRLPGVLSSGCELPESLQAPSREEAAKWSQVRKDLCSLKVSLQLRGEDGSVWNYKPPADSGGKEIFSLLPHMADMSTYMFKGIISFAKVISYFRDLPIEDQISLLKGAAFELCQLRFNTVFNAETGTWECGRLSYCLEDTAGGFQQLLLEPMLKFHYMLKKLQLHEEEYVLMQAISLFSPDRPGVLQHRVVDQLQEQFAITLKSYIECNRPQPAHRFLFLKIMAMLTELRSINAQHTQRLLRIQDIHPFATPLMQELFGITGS

SMILES | SXR activation (in words)
COC(=O)/C=C/c1cccc(N(Cc2ccc3c(c2OC)OC(C)(C)C2C3C2(Cl)Cl)C(=O)C2CCCCC2)c1 (stereo not shown) [Compound 149] | potently activated SXR
